Laboratory results as given in ChEMBL document CHEMBL1155572, “Sesquiterpene quinols/quinones from the Micronesian sponge Petrosaspongia metachromia” (J Nat Prod, 2000).
Values after ≈ are worked out from the molar mass of the structure shown.

Assay: Toxicity against brine shrimp
Type: organism-based
Settings: artemia, in vivo

COC(=O)c1cc(O)c(O)c2c1[C@]1(C)CC[C@H]3C(C)(C)CCC[C@]3(C)[C@H]1C2 [PELOROL] gave an LC50 of 5 µg/mL (≈ 13.4 µM).
